Measurements published in PubChem BioAssay (NCI).
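Test compounds were applied to cells in 96-well plates for 48 hours at 5 doses. TGI marks complete inhibition of growth.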

Key:
Test in all cases: NCI tumour cell line growth inhibition, 48 h
LXFL 529 NSCLC = tested on: LXFL 529 NSCLC
CCRF-CEM leukemia = tested on: CCRF-CEM leukemia
OVCAR-3 ovarian = tested on: OVCAR-3 ovarian
M14 melanoma = tested on: M14 melanoma
OVCAR-4 ovarian = tested on: OVCAR-4 ovarian
HOP-92 NSCLC = tested on: HOP-92 NSCLC
TK-10 renal = tested on: TK-10 renal
DMS 114 small cell lung = tested on: DMS 114 small cell lung
HT29 colon = tested on: HT29 colon
SK-OV-3 ovarian = tested on: SK-OV-3 ovarian
RPMI-8226 leukemia = tested on: RPMI-8226 leukemia
HCT-15 colon = tested on: HCT-15 colon
UO-31 renal = tested on: UO-31 renal
MOLT-4 leukemia = tested on: MOLT-4 leukemia
NCI-H226 lung = tested on: NCI-H226 lung
U251 CNS = tested on: U251 CNS
A549 NSCLC = tested on: A549 NSCLC
SN12C renal = tested on: SN12C renal
UACC-257 melanoma = tested on: UACC-257 melanoma
SW-620 colon = tested on: SW-620 colon
CAKI-1 renal = tested on: CAKI-1 renal
IGROV1 ovarian = tested on: IGROV1 ovarian
K-562 leukemia = tested on: K-562 leukemia
OVCAR-5 ovarian = tested on: OVCAR-5 ovarian
HOP-62 NSCLC = tested on: HOP-62 NSCLC
SF-295 CNS = tested on: SF-295 CNS
SNB-78 CNS = tested on: SNB-78 CNS
ACHN renal = tested on: ACHN renal
DMS 273 small cell lung = tested on: DMS 273 small cell lung
SK-MEL-5 melanoma = tested on: SK-MEL-5 melanoma
NCI-H23 lung = tested on: NCI-H23 lung
HOP-18 NSCLC = tested on: HOP-18 NSCLC
M19-MEL melanoma = tested on: M19-MEL melanoma
HCC-2998 colon = tested on: HCC-2998 colon
COLO 205 colon = tested on: COLO 205 colon
SK-MEL-28 melanoma = tested on: SK-MEL-28 melanoma
SNB-75 CNS = tested on: SNB-75 CNS
OVCAR-8 ovarian = tested on: OVCAR-8 ovarian
DLD-1 colon = tested on: DLD-1 colon
A498 renal = tested on: A498 renal
KM20L2 colon = tested on: KM20L2 colon
UACC-62 melanoma = tested on: UACC-62 melanoma
EKVX NSCLC = tested on: EKVX NSCLC
SF-268 CNS = tested on: SF-268 CNS
SF-539 CNS = tested on: SF-539 CNS
786-0 renal = tested on: 786-0 renal
MALME-3M melanoma = tested on: MALME-3M melanoma
SNB-19 CNS = tested on: SNB-19 CNS
KM12 colon = tested on: KM12 colon
NCI-H460 lung = tested on: NCI-H460 lung
HL-60(TB) leukemia = tested on: HL-60(TB) leukemia
HCT-116 colon = tested on: HCT-116 colon
RXF-631 renal = tested on: RXF-631 renal
XF 498 CNS = tested on: XF 498 CNS
NCI-H522 lung = tested on: NCI-H522 lung
RXF 393 renal = tested on: RXF 393 renal
LOX IMVI melanoma = tested on: LOX IMVI melanoma
SK-MEL-2 melanoma = tested on: SK-MEL-2 melanoma

For Cc1cccc(Cl)c1NC(N)=S, the TGI (LXFL 529 NSCLC) was over 100 µM, the TGI (CCRF-CEM leukemia) was over 100 µM and the TGI (OVCAR-3 ovarian) was 78.6 µM. For the same compound, the TGI (M14 melanoma) was over 100 µM, the TGI (OVCAR-4 ovarian) was over 100 µM and the TGI (HOP-92 NSCLC) was over 100 µM. For the same compound, the TGI (TK-10 renal) was over 100 µM, the TGI (DMS 114 small cell lung) was 82 µM and the TGI (HT29 colon) was over 100 µM. For the same compound, the TGI (SK-OV-3 ovarian) was over 100 µM, the TGI (RPMI-8226 leukemia) was 58.8 µM and the TGI (HCT-15 colon) was 37.1 µM. It also gave a TGI (UO-31 renal) of over 100 µM, a TGI (MOLT-4 leukemia) of over 100 µM and a TGI (NCI-H226 lung) of over 100 µM. The TGI (U251 CNS) was 49.7 µM, the TGI (A549 NSCLC) was over 100 µM and the TGI (SN12C renal) was over 100 µM. The TGI (UACC-257 melanoma) was over 100 µM, the TGI (SW-620 colon) was 35.6 µM and the TGI (CAKI-1 renal) was over 100 µM. It also gave a TGI (IGROV1 ovarian) of over 100 µM, a TGI (K-562 leukemia) of over 100 µM and a TGI (OVCAR-5 ovarian) of over 100 µM. It also gave a TGI (HOP-62 NSCLC) of over 100 µM, a TGI (SF-295 CNS) of over 100 µM and a TGI (SNB-78 CNS) of over 100 µM. The TGI (ACHN renal) was 82.5 µM, the TGI (DMS 273 small cell lung) was over 100 µM and the TGI (SK-MEL-5 melanoma) was over 100 µM. It also gave a TGI (NCI-H23 lung) of over 100 µM, a TGI (HOP-18 NSCLC) of 98.6 µM and a TGI (M19-MEL melanoma) of over 100 µM. The TGI (HCC-2998 colon) was over 100 µM, the TGI (COLO 205 colon) was over 100 µM and the TGI (SK-MEL-28 melanoma) was over 100 µM. It also gave a TGI (SNB-75 CNS) of over 100 µM, a TGI (OVCAR-8 ovarian) of 79.8 µM and a TGI (DLD-1 colon) of over 100 µM. It also gave a TGI (A498 renal) of over 100 µM, a TGI (KM20L2 colon) of over 100 µM and a TGI (UACC-62 melanoma) of over 100 µM. For the same compound, the TGI (EKVX NSCLC) was over 100 µM, the TGI (SF-268 CNS) was over 100 µM and the TGI (SF-539 CNS) was over 100 µM. For the same compound, the TGI (786-0 renal) was 48.6 µM, the TGI (MALME-3M melanoma) was over 100 µM and the TGI (SNB-19 CNS) was over 100 µM. For the same compound, the TGI (KM12 colon) was over 100 µM, the TGI (NCI-H460 lung) was over 100 µM and the TGI (HL-60(TB) leukemia) was over 100 µM. For the same compound, the TGI (HCT-116 colon) was 35.9 µM and the TGI (RXF-631 renal) was over 100 µM.

In the case of CCOC(=O)C12CCSC1C1(C#N)C(C#N)=CC2(N=P(c2ccccc2)(c2ccccc2)c2ccccc2)n2c(=O)n(-c3ccccc3)c(=O)n21 (stereo not drawn), the TGI (LXFL 529 NSCLC) is reported as over 100 µM, the TGI (CCRF-CEM leukemia) is reported as over 100 µM and the TGI (OVCAR-3 ovarian) is reported as 89.8 µM. For the same compound, the TGI (M14 melanoma) was over 100 µM, the TGI (OVCAR-4 ovarian) was 79.8 µM and the TGI (HOP-92 NSCLC) was 60.9 µM. For the same compound, the TGI (TK-10 renal) was over 100 µM, the TGI (DMS 114 small cell lung) was 96.6 µM and the TGI (XF 498 CNS) was 78.3 µM. The TGI (HT29 colon) was over 100 µM, the TGI (RPMI-8226 leukemia) was 73.4 µM and the TGI (HCT-15 colon) was over 100 µM. The TGI (UO-31 renal) was 77.2 µM, the TGI (MOLT-4 leukemia) was 88.1 µM and the TGI (NCI-H226 lung) was over 100 µM. The TGI (NCI-H522 lung) was 87.2 µM, the TGI (U251 CNS) was over 100 µM and the TGI (A549 NSCLC) was over 100 µM. For the same compound, the TGI (SN12C renal) was over 100 µM, the TGI (UACC-257 melanoma) was 94.3 µM and the TGI (SW-620 colon) was over 100 µM. For the same compound, the TGI (CAKI-1 renal) was over 100 µM, the TGI (IGROV1 ovarian) was over 100 µM and the TGI (RXF 393 renal) was over 100 µM. The TGI (K-562 leukemia) was over 100 µM, the TGI (OVCAR-5 ovarian) was over 100 µM and the TGI (HOP-62 NSCLC) was over 100 µM. It also gave a TGI (SF-295 CNS) of over 100 µM, a TGI (SNB-78 CNS) of over 100 µM and a TGI (ACHN renal) of over 100 µM. The TGI (SK-MEL-5 melanoma) was 55.4 µM, the TGI (NCI-H23 lung) was over 100 µM and the TGI (LOX IMVI melanoma) was over 100 µM. The TGI (M19-MEL melanoma) was 98.5 µM, the TGI (HCC-2998 colon) was over 100 µM and the TGI (COLO 205 colon) was over 100 µM. The TGI (SK-MEL-28 melanoma) was 73.3 µM, the TGI (SNB-75 CNS) was over 100 µM and the TGI (OVCAR-8 ovarian) was over 100 µM. The TGI (DLD-1 colon) was over 100 µM, the TGI (A498 renal) was over 100 µM and the TGI (KM20L2 colon) was over 100 µM. For the same compound, the TGI (UACC-62 melanoma) was 77.9 µM, the TGI (EKVX NSCLC) was over 100 µM and the TGI (SF-268 CNS) was over 100 µM. The TGI (SF-539 CNS) was over 100 µM, the TGI (786-0 renal) was over 100 µM and the TGI (MALME-3M melanoma) was over 100 µM. The TGI (SNB-19 CNS) was over 100 µM, the TGI (KM12 colon) was over 100 µM and the TGI (NCI-H460 lung) was over 100 µM. The TGI (HL-60(TB) leukemia) was 71.5 µM, the TGI (HCT-116 colon) was over 100 µM and the TGI (SK-MEL-2 melanoma) was over 100 µM. It also gave a TGI (RXF-631 renal) of over 100 µM.
